In patent publication US4613603A, “Compounds with a nitrogen-containing heterocyclic nucleus, and drugs in which they are present” (Sanofi, priority 1984, dated 1986):
Structures can show the parent of a compound that is named as a salt. Where two headings read alike, the source gives them in different places.

Experiments:
[1] = Determination of the lethal dose in mice after acute administration; settings: mouse, in vivo, po, administered orally, read-out: Percent toxicity (percentage of animals which die within 72 hours)
Method: The products were administered orally to groups of 5 female CDI Charles River mice weighing between 20 and 24 g. They were solubilized in 0.1N HCl. The toxicity was recorded for 72 hours following the administration of the products.
The results, expressed as the percentage of animals which die within 72 hours following oral administration of the products, are given in the table above.

[2] = system: convulsions induced by an electric shock; assay: Antagonism towards the convulsions induced by an electric shock; type: in vivo; settings: Mus musculus, po, 1 h; mice, administered orally 60 minutes before the electric shock; confidence limits in brackets (p ≤ 0.05); read-out: Median effective dose (ED50) for antagonism towards electric shock
Method: (§1) The anticonvulsant effect of the products on mice was evaluated on a model involving convulsions caused by an electric shock and on a model involving convulsions induced by a chemical agent: bicuculline.
The test was a slightly modified version of that of SWINYARD et al. [Journal of Pharmacology and Experimental Therapeutics 106, 319-330 (1952)] and ASAMI et al. [Arzneimittel Forschung 24(10), 1563-1568 (1974)]. The equipment consisted of a Racia shock generator fitted with 2 ocular electrodes delivering a current at 12.5 volts for 0.3 second. The groups consisted of 10 CDI Charles River mice weighing between 20 and 24 g.
The products were administered orally 60 minutes before the electric shock.

bicuculline = assay: Antagonism towards the convulsions and the mortality caused by bicuculline; type: in vivo, mice; settings: Mus musculus, po, 1 h
Method: as §1
The groups consisted of 10 CDI Charles River mice weighing between 20 and 22 g. The products were administered orally 60 minutes before the bicuculline (0.8 mg/kg, administered intravenously).

[3] = system: mortality following the injection of collagen; assay: Antithrombotic activity, mortality following the injection of collagen; type: in vivo; settings: mice, 200 mg/kg, administered orally
[4] = system: contortional movements caused by the administration of acetic acid; assay: Analgesic activity, KOSTER test (acetic acid contortions); type: in vivo; settings: mice, 25 mg/kg administered orally 30 minutes before i.p. acetic acid
Method: The analgesic activity of the products according to the invention was evaluated using the KOSTER test (Federation Proceeding 18, 41 (1959)).
The products were administered orally to mice 30 minutes before the intraperitoneal injection of 0.25 ml of 0.1N acetic acid dissolved in 10% gum arabic. The contortions between the fifth and tenth minute and between the fifteenth and twentieth minute after administration of the acid were counted for the control animals and the treated animals.

[5] = read-out: Median effective dose (ED50) for antagonism towards bicuculline, Mortality
[6] = read-out: Median effective dose (ED50) for antagonism towards bicuculline, Tonic convulsions

Structure (SMILES)	mortality at 72 h ([1]; 250 mg/kg)	mortality at 72 h ([1]; 500 mg/kg)	ED50 [2]	ED50 (bicuculline; [5])	ED50 (bicuculline; [6])	Protection from mortality following the injection of collagen [3]	mortality at 72 h ([1]; 1000 mg/kg)	Antagonism towards the contortional movements (percent/control animals) [4]
O=C1CCN(c2ncc(-c3ccccc3Cl)nn2)CC1 [SR 42 642, 6-(2-Chlorophenyl)-3-(4-oxopiperidino)-1,2,4-triazine]	0%	0%	40 mg/kg					
OC1CCN(c2ncc(-c3ccccc3Cl)nn2)CC1 [SR 42 524, 6-(2-Chlorophenyl)-3-(4-hydroxypiperidino)-1,2,4-triazine]	0%	0%	24 mg/kg	72 mg/kg	71 mg/kg	protected mice from mortality following the injection of collagen	0%	
OC1CCN(c2ncc(-c3ccc(Cl)cc3Cl)nn2)CC1 [SR 42 825, 6-(2,4-Dichlorophenyl)-3-(4-hydroxypiperidino)-1,2,4-triazine]	20%	20%	16 mg/kg	3.3 mg/kg	3.1 mg/kg		80%	-57%
CN(C)C(=O)OC1CCN(c2ncc(-c3ccccc3Cl)cn2)CC1 [SR 43 537, 2-(4-dimethylcarbamoyloxypiperidino)-5-(2-chlorophenyl)pyrimidine]			2.5 mg/kg	3 mg/kg	3.3 mg/kg			
CNC(=O)OC1CCN(c2ncc(-c3ccccc3Cl)cn2)CC1 [SR 43 543, 2-(4-Methylcarbamoyloxypiperidino)-5-(2-chlorophenyl)pyrimidine]	0%	0%	19 mg/kg	3.9 mg/kg	4.3 mg/kg		20%	
O=C1CCN(c2ccc(-c3ccccc3Cl)cn2)CC1 [SR 42 696, 5-(2-Chlorophenyl)-2-(4-oxopiperidino)pyridine acid maleate]	0%	0%						
CN(C)C(=O)OC1CCN(c2ncc(-c3ccc(Cl)cc3Cl)cn2)CC1 [SR 43 539, 2-(4-Dimethylcarbamoyloxypiperidino)-5-(2,4-dichlorophenyl)pyrimidine]			2.5 mg/kg	0.7 mg/kg	1.1 mg/kg			
OC1CCN(c2ncc(-c3ccccc3Cl)cn2)CC1 [SR 42 505, 5-(2-Chlorophenyl)-2-(4-hydroxypiperidino)pyrimidine]	0%	0%	42 mg/kg	54 mg/kg	52 mg/kg		80%	-36%
OC1CCN(c2ncc(-c3cccc4ccccc34)cn2)CC1 [SR 43 139, 5-(naphthyl-1)-2-(4-hydroxypiperidino)pyrimidine]	0%	0%	43 mg/kg	44 mg/kg	46 mg/kg		0%	
O=C1CCN(c2ncc(-c3ccc(Cl)cc3Cl)nn2)CC1 [SR 42 826, 6-(2,4-Dichlorophenyl)-3-(4-oxopiperidino)-1,2,4-triazine]	0%	20%	26 mg/kg	3.4 mg/kg	3.2 mg/kg			-42%
CC(=O)OC1CCN(c2ncc(-c3ccc(Cl)cc3Cl)cn2)CC1 [SR 43 651, 2-(4-Acetoxypiperidino)-5-(2,4-dichlorophenyl)pyrimidine]			43 mg/kg	15.5 mg/kg	17.2 mg/kg			
OC1CCN(c2ccc(-c3ccc(Cl)cc3Cl)cn2)CC1 [SR 42 903, 5-(2,4-Dichlorophenyl)-2-(4-hydroxypiperidino)pyridine]			28 mg/kg					
OC1CCN(c2cnc(-c3cccc(Cl)c3)nn2)CC1 [SR 42 904, 3-(3-Chlorophenyl)-6-(4-hydroxypiperidino)-1,2,4-triazine]	0%	0%	59 mg/kg					
OC1CCN(c2ncc(-c3ccc(Cl)cc3Cl)cn2)CC1 [SR 42 824, 5-(2,4-dichlorophenyl)-2-(4-hydroxypiperidino)pyrimidine]	0%	0%	20 mg/kg	8 mg/kg	9.4 mg/kg			-80%
O=C(OC1CCN(c2ncc(-c3ccccc3Cl)cn2)CC1)N1CCC(O)CC1 [SR 43 516, 2-[4-(4-hydroxypiperidinocarbonyloxy)piperidino]-5-(2-chlorophenyl)pyrimidine]	0%	0%	91 mg/kg				0%	
OC1CCN(c2ncc(-c3cccc(Cl)c3)cn2)CC1 [SR 42 922, 5-(3-chlorophenyl)-2-(4-hydroxypiperidino)pyrimidine]	0%	0%					0%	
OC1CCN(c2ncc(-c3ccc(Cl)cc3)cn2)CC1 [SR 42 921, 5-(4-chlorophenyl)-2-(4-hydroxypiperidino)pyrimidine]	0%	0%						
OC1CCN(c2cnc(-c3ccc(Cl)cc3)nn2)CC1 [SR 42 833, 3-(4-Chlorophenyl)-6-(4-hydroxypiperidino)-1,2,4-triazine]	0%	0%						-31%
COc1ccc(-c2cnc(N3CCC(O)CC3)nc2)cc1 [SR 43 159, 5-(4-methoxyphenyl)-2-(4-hydroxypiperidino)pyrimidine]	0%	0%	83 mg/kg	60 mg/kg	70 mg/kg		0%	
OC1CCN(c2ccc(-c3ccccc3Cl)cn2)CC1 [SR 42 482, 5-(2-Chlorophenyl)-2-(4-hydroxypiperidino)-pyridine acid maleate]	0%	0%					0%	-50%
